SMILES strings stand for the structures.

The term Kd denotes the free concentration of one partner at which half of the binding sites on the other are occupied at equilibrium, for simple one-to-one binding.

Assay [1] addresses T1, PfGrp170 (Plasmodium falciparum, UniProt C0H5H0).
T1 sequence (C0H5H0 20-932): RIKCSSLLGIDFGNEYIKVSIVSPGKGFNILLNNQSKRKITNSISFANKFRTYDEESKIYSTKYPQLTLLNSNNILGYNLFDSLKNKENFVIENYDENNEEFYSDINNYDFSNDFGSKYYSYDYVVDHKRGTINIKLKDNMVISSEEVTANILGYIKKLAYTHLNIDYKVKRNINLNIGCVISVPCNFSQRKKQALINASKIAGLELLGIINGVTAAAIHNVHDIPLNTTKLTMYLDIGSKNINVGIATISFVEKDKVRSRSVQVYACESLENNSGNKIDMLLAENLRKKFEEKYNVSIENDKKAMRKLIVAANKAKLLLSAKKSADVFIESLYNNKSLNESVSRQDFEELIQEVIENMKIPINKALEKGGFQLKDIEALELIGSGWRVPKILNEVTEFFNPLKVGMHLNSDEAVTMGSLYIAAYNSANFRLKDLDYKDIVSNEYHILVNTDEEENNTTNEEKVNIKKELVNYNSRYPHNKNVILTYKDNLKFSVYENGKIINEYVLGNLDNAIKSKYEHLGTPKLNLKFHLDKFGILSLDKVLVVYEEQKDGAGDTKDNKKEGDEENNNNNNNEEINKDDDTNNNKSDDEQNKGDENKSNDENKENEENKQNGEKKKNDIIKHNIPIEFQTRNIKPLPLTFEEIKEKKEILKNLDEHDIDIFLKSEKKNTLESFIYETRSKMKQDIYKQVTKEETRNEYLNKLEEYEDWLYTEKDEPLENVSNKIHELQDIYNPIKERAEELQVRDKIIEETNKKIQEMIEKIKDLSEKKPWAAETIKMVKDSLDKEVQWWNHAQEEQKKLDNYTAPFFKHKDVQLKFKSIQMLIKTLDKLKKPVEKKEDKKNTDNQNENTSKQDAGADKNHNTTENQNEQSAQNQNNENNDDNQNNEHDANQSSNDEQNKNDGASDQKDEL
Nature of the assay: biochemical.

In another assay the target is PfGrp94 (Plasmodium falciparum, UniProt Q8I0V4). The following applies: basal ATPase; used as control protein.
PfGrp94, sequence (Q8I0V4 29-821): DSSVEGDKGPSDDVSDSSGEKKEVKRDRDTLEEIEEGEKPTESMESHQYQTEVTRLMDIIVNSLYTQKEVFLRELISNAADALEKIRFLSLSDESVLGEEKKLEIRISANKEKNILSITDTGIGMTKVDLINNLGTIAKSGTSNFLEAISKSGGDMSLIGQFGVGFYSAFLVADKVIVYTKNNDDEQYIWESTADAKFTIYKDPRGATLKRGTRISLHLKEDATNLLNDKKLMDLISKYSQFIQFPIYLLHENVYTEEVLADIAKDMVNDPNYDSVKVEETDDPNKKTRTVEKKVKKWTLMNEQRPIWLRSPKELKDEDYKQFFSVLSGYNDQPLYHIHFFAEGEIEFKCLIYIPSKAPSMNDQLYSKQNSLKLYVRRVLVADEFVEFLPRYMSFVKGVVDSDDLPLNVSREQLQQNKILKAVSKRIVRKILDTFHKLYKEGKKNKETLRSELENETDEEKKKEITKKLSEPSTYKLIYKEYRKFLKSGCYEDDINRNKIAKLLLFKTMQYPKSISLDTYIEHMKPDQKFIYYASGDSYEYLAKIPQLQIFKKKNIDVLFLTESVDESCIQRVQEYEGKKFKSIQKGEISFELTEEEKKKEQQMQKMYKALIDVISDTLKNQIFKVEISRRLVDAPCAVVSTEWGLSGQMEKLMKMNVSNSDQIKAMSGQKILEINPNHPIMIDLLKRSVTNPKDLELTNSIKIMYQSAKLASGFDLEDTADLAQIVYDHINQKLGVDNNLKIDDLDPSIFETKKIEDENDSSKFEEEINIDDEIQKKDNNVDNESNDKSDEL
Assay [2] concerns the target T1, PfGrp170. In words: suppression of heat-induced MDH aggregation, light scattering […] nm. The format is biochemical. The following applies: 100 µM NECA, 1 µM PfGrp170, MDH (pig heart), 20 mM Tris-HCl pH 7.5, 200 mM NaCl, 5 mM MgCl2, 48 °C; inhibitor of chaperone function.

In the case of `Nc1ncnc2c1ncn2[C@@H]1O[C@H](COP(=O)(O)OP(=O)(O)OP(=O)(O)O)[C@@H](O)[C@H]1O` [ATP], binding at PfGrp170 [1] was characterised by a dissociation constant (Kd) of 143 ± 15.6 nM. For the same compound, the ATPase activity result on PfGrp94 is “The basal ATPase activity of PfGrp170 and PfGrp94 as control”.
In the case of `CCNC(=O)[C@H]1O[C@@H](n2cnc3c(N)ncnc32)[C@H](O)[C@@H]1O` [NECA], the relative aggregation entry at PfGrp170 [2] was “higher concentrations of NECA abrogated the chaperone function of PfGrp170”.

Values taken from PMC12307583 (Scientific Reports, 2025).
